Where “and” joins values, the source holds several entries; their conditions need not be identical. Equal entries are not always repeated. Where no end group is shown, it is not given here. [ ]: non-standard residue; d: D form.
Assays:
ASNHL-related tinnitus = experiment: Double-blind, randomized, placebo-controlled phase II study of AM-111 in ASNHL and associated tinnitus; format: in vivo, human; conditions: for Number of Subjects with Tinnitus/Number of Subjects with Observation (%): Safety Population; for Complete ASNHL-Related Tinnitus Remission in the Treated Ear, Frequency (%): time point Overall, mITT
Protocol: A double-blind, randomized, placebo-controlled phase II study was conducted to evaluate the efficacy and safety of AM-111 in treating ASNHL and associated tinnitus. Eligible participants were aged 18 to 60 years and suffered from ASNHL (unilateral idiopathic sudden sensorineural hearing loss (ISSNHL), uni- or bilateral acute acoustic trauma (AAT)) with hearing loss of at least 30 dB and onset not more than 48 hours previously. The hearing loss was determined against a reference value: mean hearing threshold at the 3 most affected contiguous test frequencies (pure tone average, PTA) less corresponding mean hearing threshold of the contralateral ear (Plontke et al., 2007). In case of previously asymmetric hearing or bilateral ASNHL, thresholds from a previous audiogram or ISO-7029; 2000 norm values served as reference. The PTA frequencies determined at baseline remained fixed for all evaluations.
Exclusion criteria included history of Meniere's disease, autoimmune or radiation induced hearing […] loss, endolymphatic hydrops or fluctuating hearing loss, suspected perilymph fistula, membrane rupture or retrocochlear lesion, barotrauma, air-bone gap >20 dB in 3 contiguous frequencies, previous ASNHL incident within the past 6 weeks, and acute or chronic otitis media or otitis externa. Women who were breast feeding, pregnant or who planned a pregnancy during the study, or women of childbearing potential who declared being unwilling or unable to practice an effective method of […] contraception were excluded. Written informed consent was obtained from each patient prior to the performance of any study-specific procedures.
At baseline (Day 0), study participants were randomized to receive AM-111 (0.4 or 2.0 mg/mL) or placebo at a 2:1 ratio. The study consisted of a baseline assessment and 4 follow-up visits on Days 3, 7, 30, and 90. Baseline assessments included a general physical examination, vital signs, and a urine pregnancy test for women of childbearing age. At each study visit pure tone hearing thresholds, speech discrimination at 60 and 80 dB, and subjective tinnitus loudness were determined. Those patients reporting tinnitus were asked to rate its loudness “right now” on a numerical scale ranging from 0 (no tinnitus) to 10 (extremely loud).
Approximately 0.25 mL of the study drug was administered on Day 0 by intratympanic (i.t.) injection under local anesthesia through a small myringotomy with the patient's head placed in a position tilted 45° towards the unaffected ear. Patients remained in their reclined or supine position for approximately 30 minutes to allow for diffusion of the active substance into the cochlea. In case of bilateral AAT, only the worst affected ear was treated. Subjects whose PTA recovered <10 dB from baseline to Day 7 were given the option to receive oral prednisolone 50 mg (Ratiopharm, Ulm, Germany) b.i.d. for 5 days.
The sample size was determined based on an expected effect size of 0.6, a two-sided type I error rate of 5% and a statistical power of 80%.
Efficacy analyses were primarily performed on a modified “Intention to treat” (mITT) analysis set (treated patients with PTA measured on Day 3±1 or Day 7+4 days at most) and secondarily on the “Per Protocol” (PP) analysis set. The “Safety Population” analysis set included all patients who received an injection of the study medication. Random imputation was performed for missing PTA values at Days 7 and 30, and missing speech discrimination score (SDS) values at Day 7 based on the preceding value and the mean change observed in the respective treatment group (mITT set).
For continuous efficacy endpoints, analysis of covariance (ANCOVA) models were used including treatment group and initial frequency range as class effects, and baseline values of the respective endpoint as covariate. For the complete recovery rate, a logistic regression model was applied including treatment, initial frequency range, and baseline hearing loss as predictor variables. […]

[1] = test system: models of cochlear insult; conditions: acute noise trauma, acute labyrinthitis, aminoglycoside ototoxicity, bacterial infection, cochlear ischemia, cochlear implantation trauma; cited from earlier work
c-Jun/JNK complex = conditions: in vitro and in intact cells; Holzberg et al. 2003; cited from earlier work

AM-111: 31-amino acid cell-permeable peptide (SEQ ID NO: 2, all-D), islet-brain 1 effector domain fused to TAT, formulated in a biocompatible hyaluronic acid gel ([dD][dQ][dS][dR][dP][dV][dQ][dP][dF][dL][dN][dL][dT][dT][dP][dR][dK][dP][dR][dP][dP][dR][dR][dR][dQ][dR][dR][dK][dK][dR]G)
Number of Subjects with Tinnitus/Number of Subjects with Observation (%) (ASNHL-related tinnitus; AM-111 0.4 mg/mL single i.t. injection, Day 0, after study drug, 53/56 subjects with ASNHL-related tinnitus): 53/56 (94.6) % | Number of Subjects with Tinnitus/Number of Subjects with Observation (%) (ASNHL-related tinnitus; AM-111 0.4 mg/mL single i.t. injection, Day 3, 51/56 subjects): 51/56 (91.1) % | Number of Subjects with Tinnitus/Number of Subjects with Observation (%) (ASNHL-related tinnitus; AM-111 0.4 mg/mL single i.t. injection, Day 7, 42/55 subjects): 42/55 (76.4) % | Number of Subjects with Tinnitus/Number of Subjects with Observation (%) (ASNHL-related tinnitus; AM-111 0.4 mg/mL single i.t. injection, Day 30, 26/55 subjects): 26/55 (47.3) % | Number of Subjects with Tinnitus/Number of Subjects with Observation (%) (ASNHL-related tinnitus; AM-111 0.4 mg/mL single i.t. injection, Day 90, 19/50 subjects, placebo 56.0%): 38.0% and 19/50 (38.0) % | Complete ASNHL-Related Tinnitus Remission in the Treated Ear, Frequency (%) (ASNHL-related tinnitus; AM-111 0.4 mg/mL, All Subjects N = 50 (35 subjects), placebo 54.9%, p=0.151): 35 (70.0%) | Complete ASNHL-Related Tinnitus Remission in the Treated Ear, Frequency (%) (ASNHL-related tinnitus; AM-111 0.4 mg/mL, Mild to Moderate hearing loss subgroup N = 25 (21 subjects), placebo 78.6%, p=0.732): 21 (84.0%) | Number of Subjects with Tinnitus/Number of Subjects with Observation (%) (ASNHL-related tinnitus; AM-111 2.0 mg/mL single i.t. injection, Day 0, after study drug, 58/59 subjects): 58/59 (98.3) % | Number of Subjects with Tinnitus/Number of Subjects with Observation (%) (ASNHL-related tinnitus; AM-111 2.0 mg/mL single i.t. injection, Day 3, 59/59 subjects): 59/59 (100) % | Number of Subjects with Tinnitus/Number of Subjects with Observation (%) (ASNHL-related tinnitus; AM-111 2.0 mg/mL single i.t. injection, Day 7, 51/58 subjects): 51/58 (87.9) % | Number of Subjects with Tinnitus/Number of Subjects with Observation (%) (ASNHL-related tinnitus; AM-111 2.0 mg/mL single i.t. injection, Day 30, 35/56 subjects): 35/56 (62.5) % | Number of Subjects with Tinnitus/Number of Subjects with Observation (%) (ASNHL-related tinnitus; AM-111 2.0 mg/mL single i.t. injection, Day 90, 28/54 subjects, placebo 56.0%): 51.9% and 28/54 (51.9) % | Complete ASNHL-Related Tinnitus Remission in the Treated Ear, Frequency (%) (ASNHL-related tinnitus; AM-111 2.0 mg/mL, All Subjects N = 56 (31 subjects), placebo 54.9%, p=1.000): 31 (55.4%) | Complete ASNHL-Related Tinnitus Remission in the Treated Ear, Frequency (%) (ASNHL-related tinnitus; AM-111 2.0 mg/mL, Mild to Moderate hearing loss subgroup N = 27 (17 subjects), placebo 78.6%, p=0.245): 17 (63.0%) | Number of Subjects with Tinnitus/Number of Subjects with Observation (%) (ASNHL-related tinnitus; AM-111 Total (0.4 and 2.0 mg/mL groups), Day 0, after study drug, 111/115 subjects): 111/115 (96.5) % | Number of Subjects with Tinnitus/Number of Subjects with Observation (%) (ASNHL-related tinnitus; AM-111 Total (0.4 and 2.0 mg/mL groups), Day 3, 110/115 subjects): 110/115 (95.7) % | Number of Subjects with Tinnitus/Number of Subjects with Observation (%) (ASNHL-related tinnitus; AM-111 Total (0.4 and 2.0 mg/mL groups), Day 7, 93/113 subjects): 93/113 (82.3) % | Number of Subjects with Tinnitus/Number of Subjects with Observation (%) (ASNHL-related tinnitus; AM-111 Total (0.4 and 2.0 mg/mL groups), Day 30, 61/111 subjects): 61/111 (55.0) % | Number of Subjects with Tinnitus/Number of Subjects with Observation (%) (ASNHL-related tinnitus; AM-111 Total (0.4 and 2.0 mg/mL groups), Day 90, 47/104 subjects): 47/104 (45.2) % | Complete tinnitus remission, AM-111 treatment groups versus placebo (ASNHL-related tinnitus; subgroup mild to moderate hearing loss, Fisher's Exact Test): no statistically significant differences | Otoprotection in models of cochlear insult [1]: otoprotective

Ac-YGRKKRRQRRR-gaba-ILKQSMTLNLADPVGSLKPHLRAKN-NH2 (YGRKKRRQRRRXILKQSMTLNLADPVGSLKPHLRAKN; N-acetyl; GABA spacer; C-terminal amide) [SEQ ID NO: 45, cell-permeable 37-mer peptide of human c-Jun delta domain and HIV-TAT protein transduction domain fused by a GABA spacer]
Disruption of c-Jun/JNK complex formation and subsequent phosphorylation and activation of c-Jun by JNK (c-Jun/JNK complex): specifically disrupt c-Jun/JNK complex formation
